Laboratory results taken from patent US20090084024A1, “TRAP OR DISPENSER” (EXOSECT LIMITED, priority 2006, published 2009).

Legend:
[1] = Release from two phase 100% carnauba wax lures in Eppendorf tubes (entrainment system, GC/GC-MS, wind tunnel ageing); format: physicochemical; conditions: two-layer carnauba wax; wind tunnel 5 km/h, 27° C.; retested over 20 days; FIG. 1
Procedure: In this experiment Eppendorf tubes were filled with two layers of molten carnauba wax containing different concentrations of Codlemone (E,E)-8,10-Dodecadien-1-ol (E8E10-120H). […] In the lower part of the tube, 0.75 cm^3 of molten carnauba wax containing 5 mg of codlemone and the above compounds was poured in and allowed to solidify. The next step was to add a 0.25 cm^3 cap of molten carnauba wax with 1 mg of codlemone and the above compounds to the top of the solid wax. The concept behind this experiment was that the upper layer would reduce the initial surge of pheromone that is an unwanted characteristic of all known lures when opened for the first time. The hope was that by putting a low dose in the upper layer, the initial surge would be smaller and as the pheromone in this low dose layer disappeared it would be replaced by a steady flow of pheromone permeating through it from the higher concentration layer beneath.
The lures were formulated and immediately frozen and stored in impermeable aluminum sachets until they were placed into an entrainment system comprising a sealed glass sample chamber and an adsorbent tube filled with Porapak Q, obtained from Supelco, Bellefonte, Pa. Semiochemical(s) released over 2-hour intervals were transferred to the adsorbent by use of a vacuum pump, and eluted for GC/GC-MS analysis using dichloromethane. […]

[2] = Pheromone content of carnauba wax cubes after manufacture and 1 month storage (Soxhlet extraction, Gas Chromatography); format: physicochemical; conditions: 12 mm carnauba wax cubes with 5 mg codlemone
Procedure: Carnauba wax was melted in a pan on a hot plate at 105° C. and was poured into […] mould blocks. Theses were allowed to cool and were weighed, giving an average of 1.4 g per block. From this, it was calculated that 50 mg of codlemone should be added to every 14 g of molten carnauba wax to make ten […] cubes each containing 5 mg. These cubes were made using technical grade 99% pure Codlemone (E,E)-8,10-Dodecadien-1-ol (E8E10-120H) sourced from Bedoukian Research Inc., Danbury, Conn., US and the cubes were then cooled and stored in heat sealed aluminum sachets in a freezer for 1 month. They were then removed from the freezer and the pheromone was extracted from each cube by Soxhlet extraction with ethanol and analyzed by Gas Chromatography.

SMILES	release rate of compounds from the Eppendorf wax lures [1]	lost during manufacturing, storage for 1 month and analysis [2] [%]	initial loading remaining in the cubes ([2]; average, stored in heat sealed aluminum sachets in a freezer for 1 month) [%]
CCCCCCCCCCCCC [Tridecane (13:HC), Tridecane]	releases much more quickly than Decyl Acetate (10:Ac)	–	–
C/C=C/C=C/CCCCCCCO [Codlemone, (E,E)-8,10-Dodecadien-1-ol]	–	2.5	97.5
